Reference: patent US20140249135A1, “PIM KINASE INHIBITORS AND METHODS OF THEIR USE” (NOVARTIS AG, priority 2007, published 2014)
Where two headings read alike, the source gives them in different places.

Experiments:
Type in all cases: biochemical
[1] = target: Pim2 kinase (Homo sapiens, UniProt Q9P1W9); test: Pim2 ATP depletion assay; conditions: read-out: PIM2 IC50;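 note: Luciferase-based luminescent readout of ATP remaining after PIM2 phosphorylates a BAD peptide, final 5 nM enzyme, 4 µM ATP, 10 µM peptide, 2.5% DMSO, run to roughly half ATP consumption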
Chain of Pim2 kinase (Q9P1W9 whole entry): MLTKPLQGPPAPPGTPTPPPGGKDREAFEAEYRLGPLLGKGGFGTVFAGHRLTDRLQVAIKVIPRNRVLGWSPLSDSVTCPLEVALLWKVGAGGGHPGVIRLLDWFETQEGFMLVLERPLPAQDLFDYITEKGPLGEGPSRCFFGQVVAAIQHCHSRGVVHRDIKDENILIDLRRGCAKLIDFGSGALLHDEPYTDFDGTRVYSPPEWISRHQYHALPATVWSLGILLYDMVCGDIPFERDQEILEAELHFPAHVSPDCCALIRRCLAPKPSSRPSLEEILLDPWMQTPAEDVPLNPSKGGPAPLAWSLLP

[2] = target: Pim1 kinase (Homo sapiens, UniProt P11309); test: Pim1 ATP depletion assay;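 note: Luciferase-luciferin luminescence readout of residual ATP after PIM1 transfers phosphate to a peptide substrate, 40 µM ATP added, reaction run to roughly half ATP consumption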
Chain of Pim1 kinase (P11309 whole entry): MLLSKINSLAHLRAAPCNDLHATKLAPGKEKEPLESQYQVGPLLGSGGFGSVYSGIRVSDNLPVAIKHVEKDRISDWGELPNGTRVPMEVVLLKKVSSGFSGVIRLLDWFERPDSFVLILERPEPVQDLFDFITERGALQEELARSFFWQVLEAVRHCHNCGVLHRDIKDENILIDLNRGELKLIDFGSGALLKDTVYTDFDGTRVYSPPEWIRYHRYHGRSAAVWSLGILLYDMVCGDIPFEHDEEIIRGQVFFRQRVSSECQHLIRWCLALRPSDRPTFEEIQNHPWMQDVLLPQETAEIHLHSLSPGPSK

[3] = target: Pim3 kinase (Homo sapiens, UniProt Q86V86); test: Pim3 ATP depletion assay; conditions: read-out: PIM3 IC50
[4] = Pim1 ATP depletion assay, read-out: PIM1 IC50

Measured: IC50

Nc1ccc(-c2cccc(Cl)c2F)nc1C(=O)Nc1cnccc1N1CCCC(O)C1 (stereo not drawn) [Example 655, 3-Amino-6-(3-chloro-2-fluoro-phenyl)-pyridine-2-carboxylic acid (3-hydroxy-3,4,5,6-tetra-hydro-2H-[1,4′]bipyridinyl-3′-yl)-amide]
< 1000 nM: [1] | [2]; [4] | [3]

Nc1ccc(-c2cc(C(=O)Nc3ccccc3)ccc2F)nc1C(=O)Nc1cnccc1N1CCCC(O)C1 (stereo not drawn) [Example 656, 3-Amino-6-(2-fluoro-5-phenyl-carbamoyl-phenyl)-pyridine-2-carboxylic acid (3-hydroxy-3,4,5,6-tetrahydro-2H-[1,4′]bi-pyridinyl-3′-yl)-amide]
< 1000 nM: [1] | [2]; [4] | [3]

CN(C)C(=O)c1ccc(F)c(-c2ccc(N)c(C(=O)Nc3cnccc3N3CCCC(O)C3)n2)c1 (stereo not drawn) [Example 657, 3-Amino-6-(5-dimethyl-carbamoyl-2-fluoro-phenyl)-pyridine-2-carboxylic acid (3-hydroxy-3,4,5,6-tetrahydro-2H-[1,4′]bipyridinyl-3′-yl)-amide]
< 1000 nM: [1] | [2]; [4] | [3]

Nc1ccc(-c2c(F)cccc2F)nc1C(=O)Nc1cnccc1N1CCCC(O)C1 (stereo not drawn) [Example 658, 3-Amino-6-(2,6-difluoro-phenyl)-pyridine-2-carboxylic acid (3-hydroxy-3,4,5,6-tetra-hydro-2H-[1,4′]bipyridinyl-3′-yl)-amide]
< 1000 nM: [1] | [2]; [4] | [3]

Nc1ccc(-c2ccccc2F)nc1C(=O)Nc1cnccc1N1CCC[C@@H](O)C1 [Example 659, 3-Amino-6-(2-fluoro-phenyl)-pyridine-2-carboxylic acid (3-hydroxy-3,4,5,6-tetrahydro-2H-[1,4′]bipyridinyl-3′-yl)-amide]
< 1000 nM: [1] | [2]; [4] | [3]

Nc1ccc(-c2ccccc2F)nc1C(=O)Nc1cnccc1N1CCC[C@H](O)C1 [Example 660, 3-Amino-6-(2-fluoro-phenyl)-pyridine-2-carboxylic acid (3-hydroxy-3,4,5,6-tetrahydro-2H-[1,4′]bipyridinyl-3′-yl)-amide]
< 1000 nM: [1] | [2]; [4] | [3]

Nc1ccc(-c2ccccc2F)nc1C(=O)Nc1cnccc1N1CCCC(O)C1 (stereo not drawn) [Example 661, 3-Amino-6-(2-fluoro-phenyl)-pyridine-2-carboxylic acid (3-hydroxy-3,4,5,6-tetrahydro-2H-[1,4′]bipyridinyl-3′-yl)-amide]
< 1000 nM: [1] | [2]; [4] | [3]

CC(C)Oc1ccc(F)c(-c2nc(C(=O)Nc3cnccc3N3CC[C@@H](O)[C@H](N)C3)c(N)cc2F)c1F [Example 664, 3-Amino-6-(2,6-difluoro-3-isopropoxy-phenyl)-5-fluoro-pyridine-2-carboxylic acid (3-amino-4-hydroxy-3,4,5,6-tetra-hydro-2H-[1,4′]bipyridinyl-3′-yl)-amide]
< 1000 nM: [1] | [2]; [4] | [3]

CC(C)Oc1ccc(F)c(-c2nc(C(=O)Nc3cnccc3N3CC[C@@H](N)[C@H](O)C3)c(N)cc2F)c1F [Example 666, 3-Amino-6-(2,6-difluoro-3-isopropoxy-phenyl)-5-fluoro-pyridine-2-carboxylic acid (4-amino-3-hydroxy-3,4,5,6-tetra-hydro-2H-[1,4′]bipyridinyl-3′-yl)-amide]
< 1000 nM: [1] | [2]; [4] | [3]

CC(C)NC(=O)c1ccc(F)c(-c2ccc(N)c(C(=O)Nc3cnccc3N3CC[C@@H](N)[C@H](O)C3)n2)c1 [Example 668, 3-Amino-6-(2-fluoro-5-isopropylcarbamoyl-phenyl)-pyridine-2-carboxylic acid (4-amino-3-hydroxy-3,4,5,6-tetra-hydro-2H-[1,4′]bipyridinyl-3′-yl)-amide]
< 1000 nM: [1] | [2]; [4] | [3]

Nc1ccc(-c2nccs2)nc1C(=O)Nc1cnccc1N1CC[C@@H](O)[C@H](N)C1 [Example 669, 3-Amino-6-thiazol-2-yl-pyridine-2-carboxylic acid (3-amino-4-hydroxy-3,4,5,6-tetra-hydro-2H-[1,4′]bipyridinyl-3′-yl)-amide]
< 1000 nM: [1] | [2]; [4] | [3]

CC(C)NC(=O)c1ccc(F)c(-c2ccc(N)c(C(=O)Nc3cnccc3N3CC[C@@H](O)[C@H](N)C3)n2)c1 [Example 671, 3-Amino-6-(2-fluoro-5-isopropylcarbamoyl-phenyl)-pyridine-2-carboxylic acid (3-amino-4-hydroxy-3,4,5,6-tetra-hydro-2H-[1,4′]bipyridinyl-3′-yl)-amide]
< 1000 nM: [1] | [2]; [4] | [3]

Nc1ccc(-c2c(F)cccc2F)nc1C(=O)Nc1cnccc1N1C[C@@H](N)C[C@@H](O)C1 [Example 672, 3-Amino-6-(2,6-difluoro-phenyl)-pyridine-2-carboxylic acid (3-amino-5-hydroxy-3,4,5,6-tetrahydro-2H-[1,4′]bi-pyridinyl-3′-yl)-amide]
< 1000 nM: [1] | [2]; [4] | [3]

CC1(N)CCCN(c2ccncc2NC(=O)c2nc(-c3c(F)cccc3F)ncc2N)C1 (stereo not drawn) [Example 673, 5-Amino-2-(2,6-difluoro-phenyl)-pyrimidine-4-carboxylic acid (3-amino-3-methyl-3,4,5,6-tetrahydro-2H-[1,4′]bipyridinyl-3′-yl)-amide]
< 1000 nM: [1] | [2]; [4] | [3]

CC1(N)CCCN(c2ccncc2NC(=O)c2nc(-c3ccccc3F)ccc2N)C1 (stereo not drawn) [Example 674, 3-Amino-6-(2-fluoro-phenyl)-pyridine-2-carboxylic acid (3-amino-3-methyl-3,4,5,6-tetra-hydro-2H-[1,4′]bipyridinyl-3′-yl)-amide]
< 1000 nM: [1] | [2]; [4] | [3]

CC(C)NC(=O)c1ccc(F)c(-c2ccc(N)c(C(=O)Nc3cnccc3N3CCCC(C)(N)C3)n2)c1 (stereo not drawn) [Example 675, 3-Amino-6-(2-fluoro-5-isopropylcarbamoyl-phenyl)-pyridine-2-carboxylic acid (3-amino-3-methyl-3,4,5,6-tetra-hydro-2H-[1,4′]bipyridinyl-3′-yl)-amide]
< 1000 nM: [1] | [2]; [4] | [3]

CC1(N)CCCN(c2ccncc2NC(=O)c2nc(-c3ccccc3F)ncc2N)C1 (stereo not drawn) [Example 676, 5-Amino-2-(2-fluoro-phenyl)-pyrimidine-4-carboxylic acid (3-amino-3-methyl-3,4,5,6-tetrahydro-2H-[1,4′]bi-pyridinyl-3′-yl)-amide]
< 1000 nM: [1] | [2]; [4] | [3]

CC(C)NC(=O)c1ccc(F)c(-c2ccc(N)c(C(=O)Nc3cnccc3N3C[C@@H](N)C[C@@H](O)C3)n2)c1 [Example 677, 3-Amino-6-(2-fluoro-5-isopropylcarbamoyl-phenyl)-pyridine-2-carboxylic acid (3-amino-5-hydroxy-3,4,5,6-tetra-hydro-2H-[1,4′]bipyridinyl-3′-yl)-amide]
< 1000 nM: [1] | [2]; [4] | [3]

Nc1ccc(-c2ccccc2F)nc1C(=O)Nc1cnccc1N1C[C@@H](N)C[C@@H](O)C1 [Example 678, 3-Amino-6-(2-fluoro-phenyl)-pyridine-2-carboxylic acid (5-amino-3-hydroxy-3,4,5,6-tetra-hydro-2H-[1,4′]bipyridinyl-3′-yl)-amide]
< 1000 nM: [1] | [2]; [4] | [3]

Nc1ccc(-c2c(F)cccc2F)nc1C(=O)Nc1cnccc1N1CC[C@H](O)[C@@H](N)C1 [Example 680, 3-Amino-6-(2,6-difluoro-phenyl)-pyridine-2-carboxylic acid (3-amino-4-hydroxy-3,4,5,6-tetrahydro-2H-[1,4′]bi-pyridinyl-3′-yl)-amide]
< 1000 nM: [1] | [2] | [3]

N[C@@H]1CN(c2ccncc2NC(=O)c2ccc(F)c(-c3ccccc3)n2)CC[C@H]1O [Example 681, 5-Fluoro-6-phenyl-pyridine-2-carboxylic acid (3-amino-4-hydroxy-3,4,5,6-tetrahydro-2H-[1,4′]bipyridinyl-3′-yl)-amide]
< 1000 nM: [1] | [2]; [4] | [3]

N[C@@H]1CN(c2ccncc2NC(=O)c2ccc(F)c(-c3ccccc3F)n2)CC[C@H]1O [Example 682, 5-Fluoro-6-(2-fluoro-phenyl)-pyridine-2-carboxylic acid (3-amino-4-hydroxy-3,4,5,6-tetra-hydro-2H-[1,4′]bipyridinyl-3′-yl)-amide]
< 1000 nM: [1] | [2]; [4] | [3]

N[C@H]1C[C@@H](O)CN(c2ccncc2NC(=O)c2ccc(F)c(-c3ccccc3F)n2)C1 [Example 684, 5-Fluoro-6-(2-fluoro-phenyl)-pyridine-2-carboxylic acid (5-amino-3-hydroxy-3,4,5,6-tetra-hydro-2H-[1,4′]bipyridinyl-3′-yl)-amide]
< 1000 nM: [1] | [2]; [4] | [3]
